# Assay results: patent publication US20210290644A1, “COMPOUNDS AND METHODS FOR TREATING FUNGAL INFECTIONS” (Amplyx Pharmaceuticals, Inc., priority 2018, published 2021)
# Entries after “also recorded” stand apart in the source; their conditions may differ. Read-outs that look alike come from different tables or passages of the source.
# What was measured:
# [1] = Compound 1 pH solubility at room temperature; type: physicochemical
# [2] = pH stability of Compound 1 in buffer solutions stored at 40° C.; type: physicochemical; settings: buffer solutions pH 7-8, stored at 40° C., up to seven days
# Method: The pH stability in buffer solutions were also evaluated for pH levels 7, 8, and 9 when stored at 40° C.
# [3] = tested on: Candida (C. albicans, C. glabrata, or C. auris); experiment: PK-PD studies in immunocompromised mice infected with Candida (fungal burden, CFUs in the kidney); type: in vivo; settings: dose fractionations
# Method: In PK-PD studies, immunocompromised mice were infected with one of three spp. of Candida (C. albicans, C. glabrata, or C. auris) and groups of animals were dosed with Compound 1 at different dose fractionations. […] The stasis endpoint was defined as the quantity of Candida spp. in CFUs just prior to Compound 1 administration compared to CFUs at the endpoint of assessment (i.e., 24 hours for C. albicans; 96 hours for C. glabrata and C. auris).
# In pharmacokinetic/pharmacodynamic (PK-PD) studies, immunocompromised mice were infected with one of three spp. of Candida (C. albicans, C. glabrata, or C. auris) and groups of animals were dosed with Compound 1 at different dose fractionations.
# [4] = Binary excipient compatibility study of Compound 1; type: physicochemical; settings: binary mixtures, after 3 weeks at either storage condition
# Method: For each excipient screened, there were […] (5° C., room temperature, 40° C./75% RH, 50° C.) that could be pulled at 3 weeks or 4 weeks as shown in Table 85. For contingency, one vial was stored at each condition per excipient. At each time point, an appropriate active sample control vial from each condition was reconstituted and analyzed in addition to the compatibility samples.
# [5] = Compound 1 Injection 20 mg/mL batch analysis and stability (appearance, HPLC assay, related substances, pH, particulate matter); type: physicochemical; settings: 72-hour stability data at 20 mg/mL
# Method: The HPLC method used in the stability studies for Compound 1 Injections, 20 mg/mL is a specific and stability-indicating method used for the determination of assay, related substances, content uniformity, identification, and absence of Compound 1 in Compound 1 Injection at 20 mg/mL. The method is a gradient reverse phase HPLC system to measure assay, purity, and related substances. The assay (% w/w) is determined by comparing the peak response of the sample to that of a standard. The same HPLC method used for purity and related substances is used to measure related substances. Related substances to Compound 1 drug substance are reported as area percent. The area of an impurity is divided by the total area of all sample-related peaks. Related substances are reported by retention time relative to the parent peak (RRT).
# Compound 1 Injection, 20 mg/mL, was prepared as a non-buffered solution suitable for Phase 1 clinical studies containing Compound 1, sodium chloride, and pH adjustment using hydrochloric acid and/or sodium hydroxide to pH 7.5. […] Samples have been analyzed for appearance, assay, related substance, and pH. Compound 1 Injection, engineering batch #707 manufactured under GMP was placed on an ICH stability program at 5° C. and 25° C./60% RH. Samples have been analyzed for appearance, assay, related substance, particulate matter, and pH. […]
# [6] = Additional Phase 1 study of Compound 1: IV loading, IV maintenance, then oral through Day 42, safety; type: in vivo, human; settings: 1000 mg IV 3-hour BID Day 1, 600 mg IV 3-hour QD Days 2-7, 800 mg orally QD Days 8-42
# [7] = in vivo
# Excerpt: This was a Phase 1, first-in-human, randomized, double-blind, placebo-controlled single ascending dose (SAD) and multiple ascending dose (MAD) escalation study of 120 healthy male and female subjects. The objectives of the study were to evaluate the safety, tolerability, and pharmacokinetics of single and multiple doses of Compound 1 administered by intravenous (IV) infusion.
# (§1) In the single ascending dose (SAD) phase, Cohorts 1 to 6 and 11A to 11D received single doses. For Cohorts 11A to 11D, the infusion time varied from 0.5 to 3 hours to evaluate the relationship between C., and tolerability. In the multiple ascending dose (MAD) phase, Cohorts 7 to 10 received multiple doses over 14 days, and Cohort 12 examined the feasibility of a loading dose regimen.
# Blood samples for the determination of Compound 1 and Compound 1A plasma concentrations were collected before and at appropriate times during all single- and multiple-dose administrations of Compound 1. For SAD Cohorts 1 to 6, urine samples for the determination of Compound 1A were collected through 48 hrs after dosing.
# Eighty (80) subjects were enrolled into SAD Cohorts 1 to 6 and 11A to 11D. Within each cohort, six subjects were randomized to Compound 1 and two subjects to placebo. All 60 subjects randomized to Compound 1 completed dosing. Fifty-nine (59) subjects completed the study.
# Forty (40) subjects were enrolled into MAD Cohorts 7 to 10 and Loading Dose Cohort 12. Within each cohort, six subjects were randomized to Compound 1 and two subjects to placebo.
# The PK analysis population therefore consisted of 60 subjects in the SAD phase and 28 subjects in the MAD phase.
# [8] = Study #1 Phase 1: safety and tolerability (TEAEs) of IV Compound 1
# Method: This was a Phase 1, first-in-human, randomized, double-blind, placebo-controlled single ascending dose (SAD) and multiple ascending dose (MAD) escalation study of 120 healthy male and female subjects.
# as §1
# [9] = Study #2 Phase 1: pharmacokinetics after single IV and single/multiple oral doses of Compound 1, absolute oral bioavailability; settings: Cohort 1A, Period A, 200 mg IV;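 further: phase 1 study design: one IV dose, then escalating single oral doses, fed versus fasted single oral dosing, and once-daily oral dosing over 14 days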
# Excerpt: In the single ascending dose (SAD) phase, subjects in Cohort 1a received a single IV dose in Period A and then rising single oral doses in Periods B to D. Subjects in Cohort 1b received a single oral dose under fed and fasted conditions in Periods E and F. Subjects in Cohorts 2 and 3 received once-daily oral doses for 14 days, as did subjects in Cohort 4 as part of an in vivo screen for drug-drug interaction (DDI) potential.
# For SAD Cohorts 1a and 1b, urine samples for the determination of Compound 1A were collected through 48 hrs after dosing.
# Forty-six (46) subjects were enrolled into the study, 8 in Cohort 1a, 10 in Cohort 1b, and 8 each in Cohorts 2 and 3.
# [10] = 100 mg sd oral treatment period
# [11] = 300 mg sd oral treatment period
# [12] = 500 mg sd oral treatment period
# [13] = 1000 mg/0.5 hr IV single dose group
# [14] = 1000 mg/1 hr IV single dose group
# [15] = 1000 mg/2 hr IV single dose group
# [16] = 1000 mg/3 hr IV single dose group
# [17] = Cohort 12 loading dose regimen (1000 mg IV 2-hour twice on Day 1 + 600 mg IV 1-hr QD Days 2-7)
smiles,measurement,setting,value
Nc1c(-c2cc(Cc3ccc(COc4ccccn4)cc3)no2)ccc[n+]1COP(=O)([O-])O [Compound 1],solubility,"[1]; 50 mM phosphate buffer, pH 7.5, aqueous buffer, Study B, pH 7.5 (50 mM phosphate buffer)",141000 µg/mL
same,solubility,"[1]; pH 1, simulated gastric fluid, Study A, pH 1",3830 µg/mL
same,solubility,"[1]; pH 3, aqueous buffer, Study A, pH 3",111 µg/mL
same,solubility,"[1]; pH 4, aqueous buffer, Study A, pH 4",63 µg/mL
same,solubility,"[1]; pH 5, aqueous buffer, Study A, pH 5",125 µg/mL
same,solubility,"[1]; pH 6, aqueous buffer, Study A, pH 6",758 µg/mL
same,solubility,"[1]; pH 6.5, aqueous buffer, Study B, pH 6.5",4300 µg/mL
same,solubility,"[1]; pH 7, aqueous buffer, Study A, pH 7, saturation not achieved",> 17600 µg/mL
same,solubility,"[1]; pH 7, aqueous buffer, Study B, pH 7.0",53700 µg/mL
same,solubility,"[1]; pH 7.5, aqueous buffer, Study A, pH 7.5, saturation not achieved",> 28500 µg/mL
same,solubility,"[1]; pH 8.5, aqueous buffer, Study A, pH 8.5, saturation not achieved",> 80000 µg/mL
same,solubility,"[1]; phosphate buffer, pH 7, aqueous buffer, Study B, pH 7.0 (with phosphate buffer)",20900 µg/mL
same,change in potency,[2],< 3%
same,"PK-PD variable that best correlated with antifungal efficacy (fungal burden, CFUs in the kidney)",[3],AUC/MIC ratio
same,compatibility with excipients (total purity profile),[4],compatible with the tested excipients
same,degradation,[5],< 0.10%
same,safety and tolerability,[6],safe and well tolerated
same,exposures to the prodrug relative to those of the active Compound 1A,"[7]; both, human, iv",< 5%
same,time after start of infusion by which prodrug concentrations are <LOQ,"[7]; both, human, iv",at most 8 hrs
same,accumulation of prodrug following multiple dosing,[7],essentially no accumulation
same,number of TEAEs,[10],2 TEAEs
same,subjects reporting TEAEs,[10],33%
same,number of TEAEs,200 mg sd IV treatment period,3 TEAEs
same,subjects reporting TEAEs,200 mg sd IV treatment period,50%
same,number of TEAEs,[11],6 TEAEs
same,subjects reporting TEAEs,[11],50%
same,number of TEAEs,500 mg md oral group,24 TEAEs
same,subjects reporting TEAEs,500 mg md oral group,83%
same,number of TEAEs,[12],1 TEAE
same,subjects reporting TEAEs,[12],17%
same,safety and tolerability,1000 mg PO QD on Days 1 through 14,safe and well tolerated
same,number of TEAEs,1000 mg md oral group,119 TEAEs
same,subjects reporting TEAEs,1000 mg md oral group,100%
same,deaths or SAEs,Study #2,no deaths or SAEs reported
same,dose-limiting toxicities (DLTs),Study #2,No DLTs were observed
same,maximum tolerated dose (MTD),Study #2,not determined/reached
same,safety and tolerability,all doses in Study #2,safe and well tolerated
same,tolerability,multiple oral doses of 500 mg and 1000 mg once daily for 14 consecutive days,well tolerated by the majority of subjects
same,tolerability,single IV doses of 200 mg and single oral doses 100 mg to 500 mg,well tolerated
same,effect of dosing under fed conditions on tolerability,"single-dose crossover food effect cohort, TEAEs related to Gastrointestinal and Nervous System Disorders",improve tolerability
same,number of TEAEs,[8]; [13],21 TEAEs
same,subjects reporting TEAEs,[8]; [13],100%
same,number of TEAEs,[8]; [14],25 TEAEs
same,subjects reporting TEAEs,[8]; [14],100%
same,number of TEAEs,[8]; [15],22 TEAEs
same,subjects reporting TEAEs,[8]; [15],100%
same,number of TEAEs,[8]; [16],13 TEAEs
same,subjects reporting TEAEs,[8]; [16],83%
same,number of TEAEs,[8]; [17],38 TEAEs
same,subjects reporting TEAEs,[8]; [17],100%
same,maximum tolerated dose (MTD),[8]; Study #1 and Study #2,not determined/not reached
same,severe TEAEs or SAEs,[8]; Study #1 and Study #2,no severe or very severe TEAEs or SAEs reported
same,dose-limiting toxicities,[8]; Study #1 and Study #2 (two Phase 1 studies),no dose-limiting toxicities observed; also recorded: No DLTs were observed
same,tolerability,"[8]; all single and multiple IV and oral doses, Study #1 and Study #2",well tolerated
same,safety and tolerability,"[8]; faster infusions (single dose: 2, 1 and 0.5 hrs; multiple dose: 1 hr)",safe and well tolerated
same,safety and tolerability,"[8]; loading dose 1000 mg IV twice on Day 1 (2-hr infusion), maintenance 600 mg QD",safe and well tolerated
same,tolerability,[8]; multiple IV doses up to 600 mg once daily for 14 consecutive days,well tolerated by the majority of subjects
same,tolerability,"[8]; single IV doses up to 350 mg over 3 hours and 1000 mg over 0.5-, 1-, 2-, 3-hour infusions",well tolerated
same,time after IV infusion through which prodrug plasma concentrations were ≥LOQ,[9],≤ 4 h
